Values after ≈ are worked out from the molar mass of the structure shown. Where two headings read alike, the source gives them in different places.
What was measured:
[1] = tested on: Staphylococcus aureus (SA); experiment: MIC against pathogen Staphylococcus aureus (Table 1); assay type: cell-based; details: read-out: Pathogens MIC Staphylococcus aureus (SA)
Trichophyton rubrum = experiment: MIC against Trichophyton rubrum; assay type: cell-based
Roseomonas mucosa (RM) = experiment: MIC against skin commensal Roseomonas mucosa; assay type: cell-based; details: read-out: Skin Commensals MIC Roseomonas mucosa (RM)
[2] = tested on: Staphylococcus epidermidis (SE); experiment: MIC against skin commensal Staphylococcus epidermidis; assay type: cell-based; details: read-out: Skin Commensals MIC Staphylococcus epidermidis (SE)
[3] = HepaRG cytotoxicity, MTT assay EC50; assay type: cell-based, human; details: human, NoSpin HepaRG cells
NoSpin HepaRG cells = experiment: HepaRG cytotoxicity, MTT assay EC50; assay type: cell-based, human; details: Homo sapiens, HepaRG; cytotoxicity EC50, Table 9
Bacillus subtilis = Bacillus subtilis MIC / MBC; assay type: cell-based; details: for MBC: Bacillus subtilis NRRL: B-571, minimum bactericidal concentration; for MIC: Bacillus subtilis
Bacillus thuringiensis = assay type: cell-based; details: for MIC: Bacillus thuringiensis
[4] = tested on: Burkholderia thailandensis Brett et al ATCC: 700388; experiment: microbe, parasite or virus in culture; assay type: cell-based
Candida glabrata = Candida glabrata MIC / MFC; assay type: cell-based; details: Nakaseomyces glabratus; for MFC: read-out: MFC; for MIC: read-out: MIC
[5] = tested on: Francisella tularensis subsp. Holarctica Strain LVSR NR-597; experiment: microbe, parasite or virus in culture; assay type: cell-based
N. gonorrhoeae = N. gonorrhoeae MIC; assay type: cell-based; details: Neisseria gonorrhoeae, strain #167
C. albicans = experiment: Candida albicans MIC / MFC; assay type: cell-based
[6] = tested on: Francisella tularensis strains; experiment: microbe, parasite or virus in culture; assay type: cell-based
HepG2 cells = experiment: SYTOX assay on HepG2 cells; assay type: cell-based; details: staining in treated cells
[7] = MIC with and without 2-ketobutyrate (synergy); assay type: cell-based
[8] = tested on: cell wall synthesis of S. aureus; experiment: Macromolecular synthesis assay, glucosamine incorporation into cell wall; assay type: cell-based; details: dose-response, FIG. 2A-2B
[9] = Trichophyton rubrum Castellani Sabouraud ATCC: 28188, read-out: MIC
[10] = Bacillus subtilis (Ehrenberg 1835) Cohn 1872 NRRL: B-571, read-out: MIC
[11] = strain B-571 (Table 4), read-out: Bacillus subtilis MIC
[12] = strain B-1985, read-out: Bacillus subtilis MIC
[13] = strain B-3665, read-out: Bacillus subtilis MIC
[14] = strain B-14322, read-out: Bacillus subtilis MIC
[15] = strain B-41090, read-out: Bacillus subtilis MIC
[16] = strain BD-594, read-out: Bacillus subtilis MIC
[17] = Bacillus thuringiensis Berliner ATCC: 10792
[18] = Bacillus thuringiensis Berliner ATCC: 10792, read-out: MIC
[19] = C. glabrata strain #584 (Table 7)
[20] = C. albicans strain #761, read-out: MFC
[21] = C. albicans strain #761, read-out: MIC
[22] = C. albicans strain #762, read-out: MFC
[23] = C. albicans strain #762, read-out: MIC
[24] = read-out: F. tularensis BSL-3 MIC, Strain 100
[25] = read-out: F. tularensis BSL-3 MIC, strain HN-63
[26] = read-out: F. tularensis BSL-3 MIC, strain LVS
[27] = read-out: F. tularensis BSL-3 MIC, strain MA00-2987
[28] = read-out: F. tularensis BSL-3 MIC, strain MO #1
[29] = read-out: F. tularensis BSL-3 MIC, strain MO #2
[30] = read-out: F. tularensis BSL-3 MIC, strain MO #3
[31] = read-out: F. tularensis BSL-3 MIC, strain OR-96
[32] = read-out: F. tularensis BSL-3 MIC, strain SCHU S4
[33] = read-out: F. tularensis BSL-3 MIC, strain WY-96
[34] = read-out: MAX, highest MIC over the Francisella tularensis strains
[35] = read-out: MIN, lowest MIC over the Francisella tularensis strains

## Nc1ccccc1Sc1c[nH]c2ccc(Br)cc12 [Compound 174M, 2-((5-bromo-1H-indol-3-yl)thio)aniline]
[1]
  MIC: 2 µg/mL (≈ 6.27 µM)
Trichophyton rubrum; [9]
  MIC: 0.99 µg/mL (≈ 3.1 µM)
Trichophyton rubrum; Trichophyton rubrum, read-out: Pathogens MIC Trichophyton rubrum (TR)
  MIC: 0.9 µg/mL (≈ 2.82 µM)
Roseomonas mucosa (RM)
  MIC: > 50 µg/mL
[2]
  MIC: 16 µg/mL (≈ 50.1 µM)
[3]
  EC50 at 48 h: 85 µg/mL (≈ 266 µM)
NoSpin HepaRG cells
  EC50: 26.5 µg/mL (≈ 83 µM)
Bacillus subtilis
  MBC: 10 µg/mL (≈ 31.3 µM)
Bacillus subtilis; [10]
  MIC: 0.63 µg/mL (≈ 1.97 µM)
Bacillus subtilis; [11]
  MIC: 0.625 µg/mL (≈ 1.96 µM)
Bacillus subtilis; [12]
  MIC: 5 µg/mL (≈ 15.7 µM)
Bacillus subtilis; [13]
  MIC: 10 µg/mL (≈ 31.3 µM)
Bacillus subtilis; [14]
  MIC: 2.5 µg/mL (≈ 7.83 µM)
Bacillus subtilis; [15]
  MIC: 5 µg/mL (≈ 15.7 µM)
Bacillus subtilis; strain B-41581, read-out: Bacillus subtilis MIC
  MIC: 5 µg/mL (≈ 15.7 µM)
Bacillus subtilis; [16]
  MIC: 5 µg/mL (≈ 15.7 µM)
Bacillus thuringiensis; [17]
  MBC: 5 µg/mL (≈ 15.7 µM)
Bacillus thuringiensis; ATCC10792, […]
  MIC: 0.625 µg/mL (≈ 1.96 µM)
Bacillus thuringiensis; [18]
  MIC: 1.25 µg/mL (≈ 3.92 µM)
Bacillus thuringiensis; strain B-1596
  MIC: 1.25 µg/mL (≈ 3.92 µM)
[4]
  MBC: > 150 µg/mL
  MIC: 150 µg/mL (≈ 470 µM)
Candida glabrata; C. glabrata strain #325
  MFC: > 50 µg/mL
  MIC: 25 µg/mL (≈ 78.3 µM)
Candida glabrata; [19]
  MIC: 12.5 µg/mL (≈ 39.2 µM)
Candida glabrata; Candida glabrata #584 (Table 2)
  MIC: 12.5 µg/mL (≈ 39.2 µM)
[5]
  MIC: 2.5 µg/mL (≈ 7.83 µM)
N. gonorrhoeae
  MIC: 1.56 µg/mL (≈ 4.89 µM)
C. albicans; [20]
  MFC: 25 µg/mL (≈ 78.3 µM)
C. albicans; [21]
  MIC: 12.5 µg/mL (≈ 39.2 µM)
C. albicans; [22]
  MFC: 25 µg/mL (≈ 78.3 µM)
C. albicans; [23]
  MIC: 3.13 µg/mL (≈ 9.8 µM)
[6]
  MIC50: 4 µg/mL (≈ 12.5 µM)
[6]; [24]
  MIC: > 8 µg/mL
[6]; [25]
  MIC: 4 µg/mL (≈ 12.5 µM)
[6]; [26]
  MIC: 2 µg/mL (≈ 6.27 µM)
[6]; [27]
  MIC: 2 µg/mL (≈ 6.27 µM)
[6]; [28]
  MIC: 2 µg/mL (≈ 6.27 µM)
[6]; [29]
  MIC: 1.67 µg/mL (≈ 5.23 µM)
[6]; [30]
  MIC: 4 µg/mL (≈ 12.5 µM)
[6]; [31]
  MIC: 4 µg/mL (≈ 12.5 µM)
[6]; [32]
  MIC: 8 µg/mL (≈ 25.1 µM)
[6]; [33]
  MIC: 4 µg/mL (≈ 12.5 µM)
[6]; [34]
  MIC: > 8 µg/mL
[6]; [35]
  MIC: 1.67 µg/mL (≈ 5.23 µM)
HepG2 cells
  cell membrane damage of HepG2 cells: no cell membrane damage
[7]
  synergistic effect with 2-ketobutyrate: synergistic effect
[7]; with 200 μg/mL 2-ketobutyrate
  MIC: 0.781 µg/mL
[7]; with 800 μg/mL 2-ketobutyrate
  MIC: less than 0.39 μg/mL
[7]; without ketobutyrate
  MIC: 3.124 µg/mL

## Brc1cccc(Sc2c[nH]c3ccc(Br)cc23)c1 [Compound 174N, 5-bromo-3-((3-bromophenyl)thio)-1H-indole]
Trichophyton rubrum; [9]
  MIC: < 0.57 µg/mL
NoSpin HepaRG cells
  EC50: 29.5 µg/mL (≈ 77 µM)
Bacillus subtilis
  MBC: 10 µg/mL (≈ 26.1 µM)
Bacillus subtilis; [10]
  MIC: 1.25 µg/mL (≈ 3.26 µM)
Bacillus subtilis; [11]
  MIC: 1.25 µg/mL (≈ 3.26 µM)
Bacillus subtilis; [12]
  MIC: 1.25 µg/mL (≈ 3.26 µM)
Bacillus subtilis; [13]
  MIC: 1.25 µg/mL (≈ 3.26 µM)
Bacillus subtilis; [14]
  MIC: 1.25 µg/mL (≈ 3.26 µM)
Bacillus subtilis; [15]
  MIC: 2.5 µg/mL (≈ 6.53 µM)
Bacillus subtilis; [16]
  MIC: 2.5 µg/mL (≈ 6.53 µM)
Bacillus thuringiensis; [17]
  MBC: 10 µg/mL (≈ 26.1 µM)
Bacillus thuringiensis; ATCC10792, […]
  MIC: 1.25 µg/mL (≈ 3.26 µM)
Bacillus thuringiensis; [18]
  MIC: 1.25 µg/mL (≈ 3.26 µM)
Bacillus thuringiensis; strain B-1596
  MIC: 2.5 µg/mL (≈ 6.53 µM)
[4]
  MBC: > 150 µg/mL
  MIC: 50 µg/mL (≈ 131 µM)
Candida glabrata; C. glabrata strain #325
  MIC: > 50 µg/mL
Candida glabrata; [19]
  MFC: 50 µg/mL (≈ 131 µM)
Candida glabrata; Candida glabrata #584 (Table 2), minimum fungicidal concentration
  MFC: 50 µg/mL (≈ 131 µM)
[5]
  MIC: 1.25 µg/mL (≈ 3.26 µM)
N. gonorrhoeae
  MIC: 1.56 µg/mL (≈ 4.07 µM)
C. albicans; [20]
  MFC: > 50 µg/mL
C. albicans; [21]
  MIC: 12.5 µg/mL (≈ 32.6 µM)
C. albicans; [22]
  MFC: 6.25 µg/mL (≈ 16.3 µM)
C. albicans; [23]
  MIC: 3.13 µg/mL (≈ 8.17 µM)
[6]
  MIC50: 4 µg/mL (≈ 10.4 µM)
[6]; [24]
  MIC: 8 µg/mL (≈ 20.9 µM)
[6]; [25]
  MIC: 4 µg/mL (≈ 10.4 µM)
[6]; [26]
  MIC: 6.67 µg/mL (≈ 17.4 µM)
[6]; [27]
  MIC: 6.67 µg/mL (≈ 17.4 µM)
[6]; [28]
  MIC: 3.33 µg/mL (≈ 8.69 µM)
[6]; [29]
  MIC: 3.67 µg/mL (≈ 9.58 µM)
[6]; [30]
  MIC: 4 µg/mL (≈ 10.4 µM)
[6]; [31]
  MIC: 4 µg/mL (≈ 10.4 µM)
[6]; [32]
  MIC: > 8 µg/mL
[6]; [33]
  MIC: 4 µg/mL (≈ 10.4 µM)
[6]; [34]
  MIC: > 8 µg/mL
[6]; [35]
  MIC: 3.33 µg/mL (≈ 8.69 µM)

## CN[C@H](CC(C)C)C(=O)N[C@H]1C(=O)N[C@@H](CC(N)=O)C(=O)N[C@H]2C(=O)N[C@H]3C(=O)N[C@H](C(=O)N[C@H](C(=O)O)c4cc(O)cc(O)c4-c4cc3ccc4O)[C@H](O)c3ccc(c(Cl)c3)Oc3cc2cc(c3O[C@@H]2O[C@H](CO)[C@@H](O)[C@H](O)[C@H]2O[C@H]2C[C@](C)(N)[C@H](O)[C@H](C)O2)Oc2ccc(cc2Cl)[C@H]1O [vancomycin, reference compound]
[8]
  cell wall synthesis inhibition (glucosamine incorporation): increasingly inhibits glucosamine from incorporating into a cell wall

— patent publication US11180452B2, “Methods and compositions for selectively inhibiting pathogenic microbes” (priority 2019, dated 2021)
